One series concerns PDAC2 3D spheres. The series can be described thus: Viability curves on PDAC2 3D spheres. Type of series: cell-based, human. The settings on record: for EC50: Homo sapiens. From the text:
The PDAC patient-derived xenograft (PDX) Panc354 (referred to hereafter as PDAC3) was obtained from Dr. Manuel Hidalgo under a Material Transfer Agreement with the Spanish National Cancer Centre (CNIO), Madrid, Spain (Reference no. I409181220BSMH). PDAC1, PDAC2 and PDAC4 PDXs were established from primary patient resected tumors. Samples were provided by the BioBank Hospital Ramón y Cajal-IRYCIS (PT13/0010/0002), integrated in the Spanish National Biobanks Network and they were processed following standard operating procedures with the appropriate approval of the Ethical and Scientific Committees (Control no. No. Control: DE-BIOB-73 AC65, RG.BIOB-96 REV, and CI-BIOB-08-10-01 rev), with informed consent and according to Declaration of Helsinki principles. Primary patient tumors were subcutaneously implanted in immunocompromised female 6- to 8-week-old NU-Foxn1nu nude mice (Envigo, Barcelona, Spain) and subsequently passage in vivo to establish PDX PDAC1, PDAC2 and PDAC4. Primary PDX-derived in vitro cultures were established as previously detailed. Briefly, xenografts were minced, enzymatically digested with collagenase (Stem Cell Technologies) for 60 min at 37 °C and after centrifugation for 5 min at 1800 rpm, the cell pellets were resuspended and cultured in RPMI (1:1; #61870-010; Gibco, Waltham, MA, USA) supplemented with 10% FBS (Invitrogen, Waltham, MA, USA), Pen/Strep (1:100; #1500-063; Gibco, Waltham, MA, USA), and Fungizone (1:250; #15290-018; Gibco, Waltham, MA, USA). Primary cultures were tested for Mycoplasma at least every 4 weeks.
(§1) Pancreatic CSC spheres were generated as previously described in ultra-low attachment plates (Corning) using CSC media: serum-free DMEM/F12 medium (1:1; #21331-020; Gibco, Waltham, MA, USA), supplemented with Pen/Strep (1:100; #1500-063; Gibco, Waltham, MA, USA), Fungizone (1:250; #15290-018; Gibco), L-Glutamine (1:100; #25030-024; Gibco, Waltham, MA, USA), B-27 (1:50; #17504-044; Gibco, Waltham, MA, USA) and basic fibroblast growth factor (FGF-b) (1:5000; Gibco, Waltham, MA, USA). All cell culture was carried out at 37 °C in a 5% CO2 humidified incubator. To quantify spheres of > 40 μm, 1 mL of sample volume was analyzed with a CASY® Cell Counter (Roche Applied Sciences, Mannheim, Germany). The CASY® Cell Counter measuring principle is based on a capillary particle counter with pulse area analysis, that permits the determination of cell count, cell concentration, cell volume (peak), and average cell diameter, specifically diameters of 40–80 μm, 80–120 μm and >120 μm.
Murine embryonic stem cells (mESCs) were plated at 20,000 cells per well in gelatinized 96 well plates. Compounds from the 640 compound ETP library were added by a Beckman FX 96 tip to achieve a final concentration of 5 µM in each well, and each compound was tested in duplicate. Cells were treated for a total of 30 h prior to assessing cell viability using CellTiter 96® AQueous One Solution Cell Proliferation Assay (MTS) assay according to manufacturer’s instructions (G3582, Promega, Madison, WI, USA). Dose response curves were carried out on mESCs under the same conditions using indicated compounds. To test the viability of CSCs, 10,000 PDAC cells were plated in spheroid conditions and immediately treated with indicated compounds and concentrations for the duration of the sphere formation assay. […]

In a further series the test system is PDAC3 cultures. Description: Sphere formation assay. Format: cell-based, human. The settings on record: 1.25 or 2.5 µM.
Text: as §1

Another series has as its system PDAC1 cultures. The series can be described thus: Sphere formation assay. The note with it: 1.25 or 2.5 µM. Format: cell-based, human.
Text: as §1

Series [1] is described as follows: mESC viability (MTS) screen and dose response. The note with it: mouse, mouse embryonic stem cells (mESCs), 5 µM, MTS. Type of series: cell-based, mouse. The procedure: (§2) Mouse embryonic stem cells were cultured in Dulbecco’s Modified Eagle Medium (DMEM) containing 15% Fetal bovine serum (FBS), non-essential amino acids (NEAA), 2-mercaptoethanol, and Leukemia inhibitory factor (LIF) and passaged on gelatinized plates under standard conditions.
(§3) Murine embryonic stem cells (mESCs) were plated at 20,000 cells per well in gelatinized 96 well plates. Compounds from the 640 compound ETP library were added by a Beckman FX 96 tip to achieve a final concentration of 5 µM in each well, and each compound was tested in duplicate. Cells were treated for a total of 30 h prior to assessing cell viability using CellTiter 96® AQueous One Solution Cell Proliferation Assay (MTS) assay according to manufacturer’s instructions (G3582, Promega, Madison, WI, USA). Dose response curves were carried out on mESCs under the same conditions using indicated compounds. To test the viability of CSCs, 10,000 PDAC cells were plated in spheroid conditions and immediately treated with indicated compounds and concentrations for the duration of the sphere formation assay. For adherent non-CSCs, 20,000 cells were plated in wells of standard tissue culture-treated plates (Corning, Corning, NY, USA) and treated the following day with indicated compounds and concentrations. For re-plated spheres (Figure S1B), 7-day-old spheres were filtered using a 40 µM filter (Fisher Scientific, Hampton, NH, USA), washed once with 1× PBS, and incubated with trypsin 0.05% EDTA at 37 °C (Thermo Fisher Scientific, Waltham, MA, USA) to achieve a single cell suspension (approximately 10–30 min, depending on the PDAC culture). Trypsinized cells were counted and 20,000 cells were plated in wells of standard tissue culture-treated plates (Corning) and treated the following day with indicated compounds and concentrations.

Series [2] has as its system mouse embryonic stem cells (mESCs). The series can be described thus: mESC viability (MTS) screen and dose response. Format: cell-based. The note with it: Mus musculus, Embryonic stem cell, 30 h. The procedure:
as §2, §3

Another series addresses PIM3 (Homo sapiens, UniProt Q86V86). The series can be described thus: PIM kinase activity assay. Type of series: biochemical. The procedure: (§4) PIM1/3 kinase activities were measured as previously described in Martínez-Gonzalez et al.. HASPIN activity was measured using the commercial ADP GLO assay (Promega), a homogeneous assay measuring ADP accumulation, as a universal product of kinase activity. The assay was done following general manufacturer recommendations and adapting protein to optimal conditions.

For another series, the target named is PIM1 (Homo sapiens, UniProt P11309). The series can be described thus: PIM kinase activity assay. Type of series: biochemical. The procedure:
as §4

Read-outs that look alike come from different tables or passages of the source.

Sequence of PIM1 (P11309 whole entry): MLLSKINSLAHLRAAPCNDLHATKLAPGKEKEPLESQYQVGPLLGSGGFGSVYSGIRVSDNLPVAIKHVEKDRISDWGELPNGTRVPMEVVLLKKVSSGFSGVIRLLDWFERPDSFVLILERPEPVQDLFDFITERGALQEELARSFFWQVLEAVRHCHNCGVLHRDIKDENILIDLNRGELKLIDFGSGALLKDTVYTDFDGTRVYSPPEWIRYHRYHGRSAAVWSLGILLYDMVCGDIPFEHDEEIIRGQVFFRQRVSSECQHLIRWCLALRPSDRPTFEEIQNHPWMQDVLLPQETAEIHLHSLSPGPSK

Regarding `Fc1ccc(-n2cc(CCCCN3CCC4(CC3)OCc3ccccc34)c3ccccc32)cc1` [siramesine], the concentration for a half-maximal effect (EC50) in the series on PDAC2 3D spheres (PDAC-2, 30 h, read-out: EC50 (viability), PDAC2 spheres) is 5980 nM. Further, the sphere forming capacity entry in the series on PDAC3 cultures and with PDAC1 cultures was “decreased sphere forming capacity” in each case.

In the case of `COc1nc2ccc(NCC3CCN(C)CC3)nn2c1C(=O)Nc1cccc(OC(F)(F)F)c1` [Cpd 1], in series [1], the viability at 30 h, 5 µM amounted to 8%. In series [2], this compound displayed an EC50 of 1330 nM. Also, the IC50 against PIM3 and at PIM1 was above 10000 nM in each case.

On to `CN1CCC(CNc2ccc3ncc(C(=O)Nc4cccc(OC(F)(F)F)c4)n3n2)CC1` [Cpd 2], for which, in the series with PDAC2 3D spheres (100 nM Bafilomycin 5 h pretreatment), the “prevention of the effect on PDAC2 CSC survival by Bafilomycin-A” value is given as “≈ 3 fold”. In addition, the EC50 in the series with PDAC2 3D spheres (PDAC-2, 72 h, no Bafilomycin, read-out: EC50 (viability), PDAC2 spheres) was 3840 nM; in the series on PDAC2 3D spheres (PDAC-2, pretreated with 100 nM Bafilomycin for 5 h, then 72 h, read-out: EC50 (viability), PDAC2 spheres, +Baf), 9140 nM; in series [2], 2050 nM. For the same compound, the viability at 30 h, 5 µM in series [1] was found to be 19%. In addition, the IC50 against PIM3 (kinase orthogonal assay) worked out at 129 nM; on PIM1 (kinase orthogonal assay), 98 nM. For the same compound, the sphere forming capacity result with PDAC3 cultures and in the series on PDAC1 cultures was “decreased sphere forming capacity” throughout.

Usually EC50 stands for the midpoint of the concentration-response curve. In general, viability refers to a read-out of living cells in per cent, often relative to untreated cells. The IC50 is the concentration that inhibits the measured activity by half. Low values mean greater potency in that assay, high ones weaker potency in that assay.

The record behind these values is PMC7407272, “Induction of Lysosome Membrane Permeabilization as a Therapeutic Strategy to Target Pancreatic Cancer Stem Cells” (Cancers, 2020).
